From US20160219881A1, “HERBICIDALLY ACTIVE 2-HALOGEN-4-ALKYNYL-PHENYL-PYRAZOLIDINE-DIONE OR PYRROLIDINE-DIONE DERIVATIVES” (SYNGENTA LIMITED, priority 2013, published 2016)

What was measured:
Assay type in all cases: in vivo
[1] = tested on: Echinochloa crus-galli (ECHCG); test: Test 1A glasshouse assay, pre-emergence herbicidal activity; conditions: 312 h, 13 days after application, read-out: Pre-Emergence Herbicidal Activity (% Phytotoxicity) ECHCG
Lolium perenne (LOLPE) [2] = test: as above; conditions: 312 h, 13 days after application, read-out: Pre-Emergence Herbicidal Activity (% Phytotoxicity) LOLPE
Procedure: (§1) Seeds of a variety of test species are sown in standard soil (usually sandy soil) in pots. After cultivation for one day (pre-emergence) or after 8 days cultivation (post-emergence) under controlled conditions in a glasshouse (at 24/16° C., day/night; 14 hours light; 65% humidity), the plants are sprayed with an aqueous spray solution derived from the formulation of the technical active ingredient (compound) in acetone/water (50:50) solution containing 0.5% Tween 20 (polyoxyethylene sorbitan monolaurate, CAS RN 9005-64-5). The test plants are then grown under controlled conditions in a glasshouse (at 24/16° C., day/night; 14 hours light; 65% humidity) and watered twice daily. 13 days after application of the test compounds, for pre- and post-emergence, the test is evaluated visually for percentage phytotoxicity to each plant (where 100%=total damage to plant; 0%=no damage to plant).
(§2) Lolium perenne (LOLPE), Triticum aestivum (TRZAW, winter wheat), Alopecurus myosuroides (ALOMY), Echinochloa crus-galli (ECHCG), and Avena fatua (AVEFA). All these are grassy monocotyledonous weeds and/or (for wheat) grassy crops.

[3] = tested on: Triticum aestivum (TRZAW, winter wheat); test: as above; conditions: 312 h, 13 days after application, read-out: Pre-Emergence Herbicidal Activity (% Phytotoxicity) TRZAW
Procedure: as §1, §2

[4] = tested on: Alopecurus myosuroides (ALOMY); test: Biological Example 3 (Test 2 glasshouse assay), post-emergence herbicidal activity
Procedure: (§3) Seeds of a variety of monocotyledonous and dicotyledonous test plants are sown in standard soil in pots. The plants are cultivated for one day (for pre-emergence) or for about 12 days (range=10-13 days) (for post-emergence) under controlled conditions in a glasshouse (warm climate species at 24/18° C., cool climate species at 20/16° C., both at day/night; 16 hours light; 65% humidity).
(§4) An “instant formulation”, known as the “IF50”, containing 50 g/litre (i.e. 5% w/v) of the “technical” (i.e. unformulated) active ingredient is prepared by dissolving the active ingredient in a mixture of organic solvents and emulsifier, details of which are provided in the Table below. This IF50 is then mixed with a small, variable amount of acetone to aid dissolution, before addition of a 0.2% v/v aqueous solution of the adjuvant X-77 (which is a mixture of alkyl aryl polyoxyethylene glycols and free fatty acids in isopropanol, CAS Registry number 11097-66-8), as the aqueous diluent, to form an aqueous spray solution which contains a predetermined concentration of the active ingredient (which varies depending on the application rate of the active ingredient to the plants) and 0.2% v/v of the adjuvant X-77. This aqueous spray solution is then sprayed onto the plants, after one day's cultivation (for pre-emergence) or after about 12 days' cultivation (for post-emergence).
(§5) The test plants are then grown on, in a glasshouse (greenhouse) under controlled conditions (at either 24/18° C. or 20/16° C. (day/night) as mentioned above; 16 hours light; 65% humidity) and are watered twice daily. Either 15 days after application of the test compound (15 DAA) (for post-emergence), or 20 days after application of the test compound (20 DAA) (for pre-emergence), the test plants are evaluated visually, and an assessed percentage phytotoxicity score is given for each compound application on each plant species (where 100%=total damage to plant; 0%=no damage to plant).
(§6) Cool climate crop plants: Triticum aestivum (TRZAW, winter wheat), Brassica napus (BRSNN, rape, also called oilseed rape or rapeseed), Beta vulgaris (BEAVA, sugar beet). Warm climate crop plants: Glycine max (GLXMA, soybean). Cool climate (“cool season”) grassy monocotyledonous weeds: Alopecurus myosuroides (ALOMY), Avena fatua (AVEFA), Lolium perenne (LOLPE). Warm climate (“warm season”) grassy monocotyledonous weeds: Setaria faberi (SETFA), SORVU (Sorghum bicolor (L.) Moench ssp. Bicolor, or Sorghum vulgare Pers.), Digitaria sanguinalis (DIGSA), Echinochloa crus-galli (ECHCG), and Brachiaria plantaginea (BRAPL).

[5] = tested on: Beta vulgaris (BEAVA, sugar beet); test: as above
Procedure: as §3, §4, §5, §6

[6] = tested on: Brachiaria plantaginea (BRAPL); test: as above
Procedure: as §3, §4, §5, §6

[7] = tested on: Brassica napus (BRSNN, rape); test: as above
Procedure: as §3, §4, §5, §6

[8] = tested on: Digitaria sanguinalis (DIGSA); test: as above
Procedure: as §3, §4, §5, §6

[9] = tested on: Echinochloa crus-galli (ECHCG); test: as above
Procedure: as §3, §4, §5, §6

[10] = tested on: Glycine max (GLXMA, soybean); test: as above
Procedure: as §3, §4, §5, §6

Lolium perenne (LOLPE) [11] = test: as above
Procedure: as §3, §4, §5, §6

[12] = tested on: SORVU (Sorghum bicolor (L.) Moench ssp. Bicolor, or Sorghum vulgare Pers.); test: as above
Procedure: as §3, §4, §5, §6

Setaria faberi (SETFA) = test: as above
Procedure: as §3, §4, §5, §6

[13] = tested on: Triticum aestivum (TRZAW, winter wheat); test: as above
Procedure: as §3, §4, §5, §6

CC#Cc1cc(C)c(C2C(=O)C(Cc3ccccn3)N(C)C2=O)c(C)c1 (stereo not shown) [Compound A50, 3-(2,6-dimethyl-4-prop-1-ynyl-phenyl)-1-methyl-5-(2-pyridylmethyl)pyrrolidine-2,4-dione]
inhibition at 62.5 g/ha ([1]; 62.5 g/ha): 70%
inhibition at 250 g/ha [1]: 90%
inhibition at 62.5 g/ha (Lolium perenne (LOLPE) [2]; 62.5 g/ha): 70%
inhibition at 250 g/ha (Lolium perenne (LOLPE) [2]; 250 g/ha): 100%
inhibition at 62.5 g/ha ([3]; 62.5 g/ha): 70%
inhibition at 250 g/ha ([3]; 250 g/ha): 90%

CC#Cc1cc(C)c(-c2c(OC(=O)C(C)(C)C)n3n(c2=O)CCOCC3)c(C)c1 [Compound P4]
inhibition at 250 g/ha [1]: 100%
Post-Emergence Herbicidal Activity (Percentage Phytotoxicity) ALOMY ([4]; 8 g/ha): 20%
Post-Emergence Herbicidal Activity (Percentage Phytotoxicity) ALOMY ([4]; 30 g/ha): 60%
Post-Emergence Herbicidal Activity (Percentage Phytotoxicity) ALOMY ([4]; 125 g/ha): 70%
Post-Emergence Herbicidal Activity (Percentage Phytotoxicity) BEAVA ([5]; 8 g/ha): 30%
Post-Emergence Herbicidal Activity (Percentage Phytotoxicity) BEAVA ([5]; 30 g/ha): 40%
Post-Emergence Herbicidal Activity (Percentage Phytotoxicity) BEAVA ([5]; 125 g/ha): 50%
Post-Emergence Herbicidal Activity (Percentage Phytotoxicity) BRAPL ([6]; 8 g/ha (rate by row order)): 90%
Post-Emergence Herbicidal Activity (Percentage Phytotoxicity) BRAPL ([6]; 30 g/ha (rate by row order)): 90%
Post-Emergence Herbicidal Activity (Percentage Phytotoxicity) BRAPL ([6]; 125 g/ha (rate by row order)): 100%
Post-Emergence Herbicidal Activity (Percentage Phytotoxicity) BRSNN ([7]; 8 g/ha): 70%
Post-Emergence Herbicidal Activity (Percentage Phytotoxicity) BRSNN ([7]; 30 g/ha): 80%
Post-Emergence Herbicidal Activity (Percentage Phytotoxicity) BRSNN ([7]; 125 g/ha): 80%
Post-Emergence Herbicidal Activity (Percentage Phytotoxicity) DIGSA ([8]; 8 g/ha (rate by row order)): 80%
Post-Emergence Herbicidal Activity (Percentage Phytotoxicity) DIGSA ([8]; 30 g/ha (rate by row order)): 90%
Post-Emergence Herbicidal Activity (Percentage Phytotoxicity) DIGSA ([8]; 125 g/ha (rate by row order)): 90%
Post-Emergence Herbicidal Activity (Percentage Phytotoxicity) ECHCG ([9]; 8 g/ha (rate by row order)): 60%
Post-Emergence Herbicidal Activity (Percentage Phytotoxicity) ECHCG ([9]; 30 g/ha (rate by row order)): 90%
Post-Emergence Herbicidal Activity (Percentage Phytotoxicity) ECHCG ([9]; 125 g/ha (rate by row order)): 100%
Post-Emergence Herbicidal Activity (Percentage Phytotoxicity) GLXMA ([10]; 8 g/ha): 50%
Post-Emergence Herbicidal Activity (Percentage Phytotoxicity) GLXMA ([10]; 30 g/ha): 60%
Post-Emergence Herbicidal Activity (Percentage Phytotoxicity) GLXMA ([10]; 125 g/ha): 70%
Post-Emergence Herbicidal Activity (Percentage Phytotoxicity) LOLPE (Lolium perenne (LOLPE) [11]; 8 g/ha): 30%
Post-Emergence Herbicidal Activity (Percentage Phytotoxicity) LOLPE (Lolium perenne (LOLPE) [11]; 30 g/ha): 40%
Post-Emergence Herbicidal Activity (Percentage Phytotoxicity) LOLPE (Lolium perenne (LOLPE) [11]; 125 g/ha): 50%
Post-Emergence Herbicidal Activity (Percentage Phytotoxicity) SORVU ([12]; 8 g/ha (rate by row order)): 70%
Post-Emergence Herbicidal Activity (Percentage Phytotoxicity) SORVU ([12]; 30 g/ha (rate by row order)): 80%
Post-Emergence Herbicidal Activity (Percentage Phytotoxicity) SORVU ([12]; 125 g/ha (rate by row order)): 100%
Post-Emergence Herbicidal Activity (Percentage Phytotoxicity) SETFA (Setaria faberi (SETFA); 8 g/ha (rate by row order)): 70%
Post-Emergence Herbicidal Activity (Percentage Phytotoxicity) SETFA (Setaria faberi (SETFA); 30 g/ha (rate by row order)): 80%
Post-Emergence Herbicidal Activity (Percentage Phytotoxicity) SETFA (Setaria faberi (SETFA); 125 g/ha (rate by row order)): 90%
Post-Emergence Herbicidal Activity (Percentage Phytotoxicity) TRZAW ([13]; 8 g/ha): 10%
Post-Emergence Herbicidal Activity (Percentage Phytotoxicity) TRZAW ([13]; 30 g/ha): 40%
Post-Emergence Herbicidal Activity (Percentage Phytotoxicity) TRZAW ([13]; 125 g/ha): 80%
